In ChEMBL document CHEMBL2163295, “Uvaridacols E-H, highly oxygenated antiausterity agents from Uvaria dac” (2012):

What was measured:
PANC-1 [1] = assay: Cytotoxicity against human PANC1 cells grown in nutrient-deprived medium after 24 hrs by WST8 assay; format: functional
PANC-1 [2] = assay: Cytotoxicity against human PANC1 cells grown in DMEM medium after 24 hrs by WST8 assay; format: functional

## COc1cc(C[C@H]2C(=O)OC[C@@H]2Cc2ccc(OC)c(OC)c2)ccc1O [ARCTIGENIN]
PANC-1 [1]
  PC50: 1 µM

## Nc1ccn([C@@H]2O[C@H](CO)[C@@H](O)C2(F)F)c(=O)n1 [GEMCITABINE]
PANC-1 [2]
  PC50: >200 µM
PANC-1 [1]
  PC50: >200 µM

## O=C(OC[C@]1(O)C=C[C@@H](O)[C@H](O)[C@H]1OC(=O)c1ccccc1)c1ccccc1 [UVARIDACOL G]
PANC-1 [1]
  PC50: >200 µM

## O=c1[nH]cc(F)c(=O)[nH]1 [FLUOROURACIL]
PANC-1 [2]
  PC50: >200 µM
PANC-1 [1]
  PC50: >200 µM

## CC(=O)O[C@@H]1[C@@H](O)[C@H](OC(=O)c2ccccc2)C=C[C@@]1(O)COC(=O)c1ccccc1 [UVARIDACOL H]
PANC-1 [1]
  PC50: 156 µM

## CC(=O)O[C@@H]1[C@@H](OC(=O)c2ccccc2)[C@@H](O)C=C[C@]1(O)COC(=O)c1ccccc1 [UVARIDACOL F]
PANC-1 [1]
  PC50: 124 µM

## O=C(OC[C@]1(O)C=C[C@H](O)[C@@H](OC(=O)c2ccccc2)[C@@H]1O)c1ccccc1 [UVARIDACOL E]
PANC-1 [1]
  PC50: 135 µM
